Measurements taken from publication PMC6321222, “An Application of Fit Quality to Screen MDM2/p53 Protein-Protein Interaction Inhibitors” (Molecules, 2018).
Like-named read-outs stand apart in the source and are kept apart here.

Legend:
[1] = molecular target: T1, human recombinant His-fused soluble protein MDM2 (residues 1–118) (Homo sapiens, UniProt Q00987); test: biochemical; assay type: binding; conditions: for FQ-Test: fit quality calculated using pKi tested by FP; for Ki: fluorescence polarization assay
T1 construct: His-fused soluble protein MDM2 (residues 1–118); His
T1 sequence (Q00987 1-118): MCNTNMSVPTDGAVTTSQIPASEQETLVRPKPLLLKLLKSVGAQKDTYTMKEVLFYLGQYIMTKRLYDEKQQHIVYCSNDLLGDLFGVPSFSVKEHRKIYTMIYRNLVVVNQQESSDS

Hep3B (p53 null) = test: cells; assay type: cell-based; conditions: Homo sapiens, means of three experiments, 72 h, read-out: MTT IC50 Hep3B (p53 null)
Protocol: (§1) In order to further confirm whether they inhibit MDM2 and release p53, a cellular test using HepG2 cell line (wild-type p53; wt-p53) vs. Hep3B cell line (p53 null) was carried out. The selectivity was calculated by IC50 against Hep3B divided by HepG2 (Table 1). The larger the selectivity value was, the stronger the interaction force between the ligands and MDM2.
(§2) The cellular growth inhibitory activity was determined using two human hepatoma cell lines, HepG2 (with wild-type p53) and Hep3B (with wt-p53 null). The IC50 was then analyzed using the GraphPad Prism 5 software (see Supplemental Materials).
(§3) In vitro antitumor activity.
(§4) Liver hepatocellular carcinoma HepG2 (with wild-type p53) and Hep3B (with p53 null) cell lines […]
(§5) 37°C in a humidified 5% carbon dioxide humidified incubator.
(§6) 5-6×10^4 cells per well were plated in 96-well plates (Costar) for 24 h, and the test compounds (prepared in 100% DMSO as a stock solution) were added in triplicate (100µL per well). 8 different concentrations (from 0.05 to 100µM) were tested for each compound. For each assay, the controls included only the medium (blank) and only the cells (positive). After 72 h of incubation, 20 µL of MTT (3-[4,5-dimethylthiazol-2-yl]-2,5-diphenyltetrazoliumbromide) solution (5 mg/mL) was added to each well, and after the samples were shaken for 1 min the plate was incubated further for 4 h at 37°C. […] were dissolved with 150 µL of DMSO and the plates were read using Eon (BioTek) at 570 nm. The IC50 was then analyzed using GraphPad Prism software. […]

HepG2 (wt-p53) = test: cells; assay type: cell-based, human; conditions: for IC50: Homo sapiens, HepG2, means of three experiments, 72 h, read-out: MTT IC50 HepG2 (wt-p53)
Protocol: as §1, §2, §3, §4, §5, §6

MDM2/p53 PPI = conditions: Figure 9, representative of each group; collected from the literature; cited from earlier work
[2] = IC50 of Hep3B (p53 null) divided by HepG2 (wt-p53)

| Structure (SMILES) | FQ-Test [1] | Ki [1] [µM] | IC50 (Hep3B (p53 null)) [µM] | Selectivity (HepG2 (wt-p53)) | IC50 (HepG2 (wt-p53)) [µM] | IC50 (MDM2/p53 PPI) [µM] | Selectivity (HepG2 (wt-p53); [2]) |
| --- | --- | --- | --- | --- | --- | --- | --- |
| Nc1c(Cl)cc([C@@H](O)CN[C@H]2c3ccccc3CSc3ccccc32)cc1Cl [compound 4] | 0.83 | 0.82 | 34.8 | 6.51 | 5.35 |  |  |
| CCOc1cc(C(C)(C)C)ccc1C1=N[C@@](C)(c2ccc(Cl)cc2)[C@@](C)(c2ccc(Cl)cc2)N1C(=O)N1CCN(CCCS(C)(=O)=O)CC1 [A] |  |  |  |  |  | 0.09 |  |
| COc1cc(C(=O)O)ccc1NC(=O)[C@@H]1N[C@@H](CC(C)(C)C)[C@](C#N)(c2ccc(Cl)cc2F)[C@H]1c1cccc(Cl)c1F [G] |  |  |  |  |  | 0.006 |  |
| COc1ccc(OC)c(S(=O)(=O)N(C)CC(=O)Nc2ccccc2OC)c1 [compound 2] | 0.78 | 2.21 | 33.5 |  | 5.38 |  | 6.23 |
| CC(C)C(CS(=O)(=O)C(C)C)N1C(=O)C(C)(CC(=O)O)CC(c2cccc(Cl)c2)C1c1ccc(Cl)cc1 (stereo not shown) [B] |  |  |  |  |  | 0.0001 |  |
| COC(=O)c1cc(Oc2ccc(C(F)(F)F)cc2NS(=O)(=O)c2cccc(Cl)c2C)cs1 [compound 5] | 0.80 | 0.94 | 23.2 |  | 4.77 |  | 4.87 |
| CCOc1ccccc1Oc1cnc(N)nc1-c1ccc(OCc2ccc(C)cc2)cc1O [compound 6] | 0.83 | 0.59 | 20.5 | 3.71 | 5.54 |  |  |
| CC(C)(C)CC1NC(C(=O)NC2CCC(O)CC2)C(c2cccc(Cl)c2F)C12C(=O)Nc1cc(Cl)ccc12 (stereo not shown) [H] |  |  |  |  |  | 0.214 |  |
| O=C(Nc1nc2ccccc2s1)c1ccccc1C(=O)c1ccc(Cl)cc1 [compound 3] | 0.86 | 0.62 | 47.3 | 10.75 | 4.4 |  |  |
| CCCCN1C(=O)[C@](O)(CC(=O)c2ccccc2OC)c2cc(Br)ccc21 [compound 1] | 0.75 | 3.9 | 77.5 | 8.98 | 8.63 |  |  |
